Reference: patent publication US20220016200A1, “PHARMACEUTICAL COMPOSITION FOR THE TREATMENT OF CYSTIC FIBROSIS” (GALENUS G.H. AG, priority 2018, published 2022)
Bridge positions count the residues as written; N and C are the ends. Square brackets hold non-standard residues; d marks the D form. Peptide text beside a SMILES is read from it. * marks the point of attachment. Heptanoyl(5-Me) = CCC(C)CCCC(=O)*; Dab = NCC[C@H](N)C(=O)O

What was measured:
[1] = test system: A. nosocomialis strain (1204194 IHMA); test: Pneumonic mouse model, colistin susceptible strain; type: in vivo, Acinetobacter nosocomialis
Method: One colistin susceptible (MIC 1 mg/L) A. nosocomialis strain (1204194 IHMA) and one colistin resistant (MIC 4 mg/L) A. nosocomialis strain (1461911 IHMA) are used. […] Fresh brain heart infusion broth (Merck, Darmstadt, Germany) bacterial cultures, in an aerobic atmosphere in the logarithmic growth phase (4-5 hours) at 37° C., are adjusted to a concentration of 1.0×10^6 colony forming units (CFU)/mL, as verified by both spectrophotometry (OD600 0.01-0.02 nm) and colony counting.
A pneumonic mouse model was used. 8- to 12-week-old, specific-pathogen free, male or female BALB/c mice, with 25-35 g in weight, are used for the study Animals have free access to food and water except during experimental procedures. All studies are performed in accordance with the ethical guidelines for the care and use of laboratory animals, and the protocol is approved by an independent ethical commission.
For inoculation, fresh inocula are prepared for each experiment from frozen stocks of the two A. nosocomialis isolates (1204194 and 1461911 IHMA). Broth cultures of freshly plated A. nosocomialis bacteria are grown to logarithmic phase overnight to an absorbance of 0.3 at 630 nm and diluted to 10^7 CFU/ml in saline. Mice are anesthetized by intraperitoneal (i.p.) injection of 12.5 mg/kg (5 μl) xylazine and 80 mg/kg (25 μl) ketamine and then inoculated intranasally with 0.05 ml of this bacterial suspension. […]

A. guillouiae 1285286 = test: Checkerboard colistin sulphate (CS) plus teicoplanin (TP), MIC/FIC and MBC/FBC; type: cell-based, Acinetobacter guillouiae; conditions: Acinetobacter guillouiae, agent alone, CAMHB, 5*10^5 CFU/ml
Method: Checkerboard analysis to determine minimal inhibitory concentration (MIC)/fractional inhibitory concentration (FIC) and minimal […] (MBC)/fractional […] (FBC) values of colistin sulphate (CS) plus teicoplanin (TP) for 6 Gram-negative strains with a bacterial load 5(1-10)*10^5 CFU/ml in a cation-adjusted Mueller-Hinton broth (CAMHB). • a. Antimicrobial stock solutions were prepared using sterile distilled water • b. CS was added along the ordinate; TP was added along the abscissa to 96 well, flat bottom, polystyrene panels with no treatment. Colistin alone was tested in triplicates. • c. Serial 2-fold dilutions starting with 640 μg/ml CS and 640 μg/ml TP were made; 15 μl volume of the serial dilutions were added for each agent to the appropriate wells; final volume at 30 μl • d. For each agent tested alone an additional 15 μl media was added to the well. 30 μl were added in control wells where none of the agent was tested. The negative control well contains 150 μl media without any additions • e. From an overnight bacterial culture in tryptic soy broth, 100 μL was added to 10 mL of fresh tryptic soy broth. This was then incubated at 37° C. for 1.5 hour at 180 rpm. • f. Bacteria in 120 μl CAMHB were added to each well (end concentration 5(1-10)*10^5 CFU/ml) • g. Plates were incubated at 37° C. in an ambient air incubator for 24 h • h. Turbidity at OD600 is determined with a plate photometer • i. By using a one-time inoculator 3 μl from each well of the 96-well plate were transferred to three blood agar plates. The plates were incubated over night at 37° C. in an ambient air incubator • j. MIC values are defined as lowest concentration which restricts bacterial growth to OD600 ≤0.1 • k. MBC values were determined by visual reading the lowest concentration which inhibits 99.9% of the growth of bacteria in the wells • l. Determination of the fractional inhibitory concentration (FIC) index and fractional bactericidal concentration (FBC) index and characterization of antimicrobial interactions was assessed […]
FIC calculation was carried out as: (MIC of drug A, tested in combination)/(MIC of drug A, tested alone)+(MIC of drug B, tested in combination)/(MIC of drug B, tested alone). FBC calculation was carried out just as well […]
Interactive categories were calculated from checkerboard analysis using MIC results from testing each agent alone and MIC results from the combination wells adjacent to the wells with growth in them […]
b. Indifference; FIC/FBC>0.5 to<4.0 c. Antagonism; FIC/FBC≥4.0 d. A. guillouiae 1285286 (IHMA), colistin resistant

Compound: CCC(C)CCCC(=O)N[C@@H](CCN)C(=O)N[C@H](C(=O)N[C@@H](CCN)C(=O)N[C@H]1CCNC(=O)[C@H]([C@@H](C)O)NC(=O)[C@H](CCN)NC(=O)[C@H](CCN)NC(=O)[C@H](CC(C)C)NC(=O)[C@@H](CC(C)C)NC(=O)[C@H](CCN)NC1=O)[C@@H](C)O (stereo partly drawn) [CS, colistin sulphate] ({Heptanoyl(5-Me)}-[Dab]T[Dab][Dab][Dab][dL]L[Dab][Dab]T; lactam 4-C)
- mice that survive until day 3 ([1]; BALB/c mice, 3 per group, colistin susceptible strain, one intramuscular dose 24 hours after inoculation, combination groups stated together for both strains (6 mice)): 2/3
- numbers of A. nosocomialis in the lung tissue ([1]; day 3, confirmed by qRT-PCR, two surviving monotherapy mice compared with all mice treated with colistin sulphate and teicoplanin or colistin sulphate and fusidic acid): significantly higher numbers
- MBC (A. guillouiae 1285286; 1285286, A. guillouiae, read-out: MBC): 4 µg/mL
- MIC (A. guillouiae 1285286; A. guillouiae 1285286, 24 h, read-out: MIC): 2 µg/mL
